Test results taken from patent US9145386B2, “SOD-imitating metal complexes” (UNIVERSITAT DE VALENCIA, priority 2009, dated 2015).

Experiments:
[1] = Potentiometric determination of protonation constants; format: physicochemical; settings: NaClO4 0.15 mol·dm^−3, 298.1±0.1 K; for logarithm of protonation constant, L + H = HL: standard deviation of last figure in brackets
Protocol: (§1) Potentiometric measurements were performed to determine the acid-base behaviour of the new family of compounds, yielding the overall protonation constants required for the subsequent study on the formation of metal complexes with Cu(II), Fe(II) and Mn(II).
The numbers in brackets indicate the standard deviation of the last significant figure. ^a) The overall basicity constant is β=ΣKHjL

[2] = Stability constants for the formation of metal complexes with Mn2+ (potentiometry); format: physicochemical
Protocol: as §1
The evaporation was in fact carried out in flasks, in contact with atmospheric oxygen.

Row | logarithm of protonation constant, H3L + H = H4L [1] | stability constant, Mn + L + H2O = MnL(OH) + H^+ [2] | stability constant, MnL + OH = MnL(OH) [2] | Structure (SMILES) | Log β (overall basicity constant) [1] | logarithm of protonation constant, H2L + H = H3L [1] | logarithm of protonation constant, HL + H = H2L [1] | logarithm of protonation constant, L + H = HL [1] | stability constant (log K), Mn + L = MnL [2] | stability constant, Mn + L + H = HMnL [2] | stability constant, MnL + H = HMnL [2]
1 | 2.82(1) | −1.36(1) | 3.45(1) | c1cc2nc(c1)CNCCN(CCNCc1ccnc3ccccc13)CCNC2 [Compound 1] | 27.00(1) | 5.94(1) | 8.31(1) | 9.93(1) | 8.91(1) |  | 
2 |  |  |  | c1cc2nc(c1)CNCCN(CCNCc1ccc3ccccc3n1)CCNC2 [Compound 2] | 24.66(2) | 6.23(1) | 8.40(1) | 10.03(1) | 11.08(1) | 16.23(6) | 5.15(2)
